{"source": "paper PMC12693167", "about": "“Design, Synthesis and Anticancer Activity of 6-Substituted-1-(3,4,5-trimethoxyphenyl)-1H-indole Against Tubulin Polymerisation” (Molecules, 2025)", "key": {"MDA-MB-231 cells": {"tested_on": "MDA-MB-231 cells", "experiment": "CCK-8 antiproliferative assay, MDA-MB-231", "assay_type": "cell-based", "settings": "Homo sapiens, cell viability (CCK-8), 48 h", "description": "(§1) To evaluate the anticancer potential of the synthesized compounds, a panel of six human and murine cancer cell lines representing different tissue origins was selected, including MCF-7 (human breast adenocarcinoma), MDA-MB-231 (human triple-negative breast cancer), A549 (human non-small cell lung cancer), HeLa (human cervical cancer), A375 (human melanoma), and B16-F10 (murine melanoma) (Table 2). […] DMSO was used as the vehicle control, and all experiments were performed in triplicate to ensure reproducibility.\n(§2) Human breast cancer cells (MCF-7), human lung cancer cells (A549), human cervical cancer cells (HeLa), human triple-negative breast cancer cells (MDA-MB-231), and human malignant melanoma cells (A375) were cultured in DMEM. Mouse melanoma cells (B16F10) were maintained in RPMI-1640 medium. All media were supplemented with 10% fetal bovine serum and 1% penicillin-streptomycin (Life Technologies, Carlsbad, CA, USA) and maintained at 37 °C in a humidified atmosphere with 5% CO2.\n(§3) The cytotoxicity of the test compounds was evaluated against MCF-7, A549, HeLa, MDA-MB-231, A375, and B16F10 using the CCK-8 assay. Cells were seeded into 96-well plates at a density of 5000 cells/well. After removing the medium, 100 μL of medium with 0.1% DMSO containing test compounds at different concentrations was added to each well and incubated at 37 °C for another 48 h. The CCK-8 solution was added and incubated for another 1 h, and then, the absorbance was detected with a microplate reader at a wavelength of 450 nm. The IC50 values were calculated by nonlinear regression analysis using GraphPad Prism 8.0.2. All the experiments were repeated at least three times."}, "A549 cells": {"tested_on": "A549 cells", "experiment": "CCK-8 antiproliferative assay, A549", "assay_type": "cell-based", "settings": "Homo sapiens, cell viability (CCK-8), 48 h", "description": "as §1, §2, §3"}, "MCF-7 cells [1]": {"tested_on": "MCF-7 cells", "experiment": "Colony formation assay", "assay_type": "cell-based, human", "settings": "24 h treatment", "description": "To assess the long-term antiproliferative potential of compound 3g, a colony formation assay was conducted using MCF-7 breast cancer cells.\nMCF-7 cells (1000 cells/well) were counted and seeded in 6-well plates. After being cultured for 24 h at 37 °C, the medium was replaced with medium added with compound 3g at the indicated concentration. After 24 h of treatment, the medium was changed to normal. After being cultured for another 10–14 days, the colonies were fixed with 4% paraformaldehyde for 30 min and stained with 0.1% crystal violet for 15 min. Following washing with PBS, the colonies were then photographed and quantified using Image J 1.54g.\nFigure 3 Inhibition of MCF-7 Cell Colony Formation by Compound 3g. (A) 3g inhibited the colony formation of MCF-7 cells at different concentrations in a dose-dependent manner. (B) Colony units in the different groups after treatment with 3g. Number of colonies was counted after treating MCF-7 cells with the indicated concentration of compound 3g for 24 h (n = 3, * p < 0.05, ** p < 0.01 vs. DMSO control, one-way ANOVA)."}, "MCF-7 cells [2]": {"tested_on": "MCF-7 cells", "experiment": "Annexin V-FITC/PI apoptosis assay", "assay_type": "cell-based, human", "settings": "48 h", "description": "Given that mitotic arrest induced by tubulin polymerization inhibitors is commonly associated with apoptosis, an Annexin V-FITC/propidium iodide (PI) assay was conducted to evaluate the pro-apoptotic effect of compound 3g in MCF-7 cells.\nMCF-7 cells were seeded into 6-well plates and cultured overnight. After treating with compound 3g (0.1, 1, and 10 μM) for 48 h, cells were harvested and suspended in binding buffer containing annexin V-FITC (0.5 mg/mL) and PI (0.5 mg/mL). After that, samples were incubated for 20 min in the dark and analyzed with a flow cytometer.\nFigure 7 Effects of compound 3g on apoptosis in MCF-7 cells. (A) Apoptosis induction by compound 3g in MCF-7 cells. Cells were treated with increasing concentrations of 3g (0.1, 1, and 10 μM) for 48 h, followed by Annexin V-FITC/PI staining and flow cytometric analysis. Cell populations were categorized as necrotic (upper left quadrant), late apoptotic (upper right), viable (lower left), and early apoptotic (lower right). (B) Quantification of apoptotic populations. Bar graphs show the percentage of cells in each apoptotic stage after treatment. Data are presented as mean ± SD from three independent experiments. Statistical significance was determined by one-way ANOVA followed by Tukey’s post hoc test. TEXT PRINTED IN THE PICTURE: (A) Control: Q1(20.37%); Q2(15.42%); Q4(59.96%); Q3(4.25%) | (A) no label printed: Q1(8.46%) (0.1 μM); Q2(23.10%) (0.1 μM); Q4(59.68%) (0.1 μM); Q3(8.75%) (0.1 μM); Q1(8.98%) (1 μM); Q2(29.15%) (1 μM); Q4(50.67%) (1 μM); Q3(11.19%) (1 μM); Q1-UL(12.21%) (10 μM); Q1-UR(40.63%) (10 μM); Q1-LL(34.55%) (10 μM); Q1-LR(12.61%) (10 μM) DOUBTS OF THE COPYIST ABOUT THIS PICTURE: The picture prints no label for the treated substance; only the concentrations 0.1 μM, 1 μM and 10 μM are printed over the plots, so they are given as conditions. / Control is untreated cells rather than a substance; it is listed because quadrant percentages are printed with that name. / The quadrant print is very small, so 3, 5, 6, 8 and 9 cannot be told apart with certainty in any of these values. / Control: Q1 20.37%, Q2 15.42%, Q4 59.96%, Q3 4.25% are best readings. / 0.1 μM: Q1 8.46%, Q2 23.10%, Q4 59.68%, Q3 8.75% are best readings. / 1 μM: Q1 8.98%, Q2 29.15%, Q4 50.67%, Q3 11.19% are best readings. / 10 μM: Q1-UL 12.21%, Q1-UR 40.63%, Q1-LL 34.55%, Q1-LR 12.61% are best readings."}}, "data": [{"smiles": "COc1cc(-n2ccc3ccc(-c4ccc(C)c(C#N)c4)cc32)cc(OC)c1OC", "note": "[3g, 2-methyl-5-(1-(3,4,5-trimethoxyphenyl)-1H-indol-6-yl)benzonitrile]", "values": [{"measurement": "IC50", "setting": "MDA-MB-231 cells", "value": "1610 ± 4", "unit": "nM"}, {"measurement": "IC50", "setting": "A549 cells", "value": "6.3 ± 0.3", "unit": "µM"}, {"measurement": "clonogenic survival / colony formation", "setting": "MCF-7 cells [1]; 0.1 μM", "value": "moderate reduction"}, {"measurement": "colony formation", "setting": "MCF-7 cells [1]; 1 μM", "value": "progressively greater inhibition"}, {"measurement": "colony formation", "setting": "MCF-7 cells [1]; 10 μM", "value": "near-complete suppression"}, {"measurement": "apoptosis induction", "setting": "MCF-7 cells [2]; 10 μM", "value": "significantly inducing apoptosis"}, {"measurement": "apoptotic cell populations", "setting": "MCF-7 cells [2]; 0.1, 1 and 10 μM", "value": "dose-dependent increase"}, {"measurement": "viability at 0.1 µM", "setting": "MCF-7 cells [2]; Homo sapiens, MCF7, 0.1 μM, read-out: viable cells (lower left quadrant, Q4)", "value": 59.7, "unit": "%"}, {"measurement": "viability at 1 µM", "setting": "MCF-7 cells [2]; Homo sapiens, MCF7, 1 μM, read-out: viable cells (lower left quadrant, Q4)", "value": 50.7, "unit": "%"}, {"measurement": "viability at 10 µM", "setting": "MCF-7 cells [2]; Homo sapiens, MCF7, 10 μM, read-out: viable cells (lower left quadrant, Q1-LL)", "value": 34.5, "unit": "%"}]}]}
